Data taken from patent US5494932A, “Sulfonic stilbene derivatives in the treatment of viral disease” (Merrell Dow Pharmaceuticals Inc., priority 1991, dated 1996).
Read-outs that look alike come from different tables or passages of the source.

How the values were obtained:
[1] = system: HIV-1 strain GB8 in JM cells; experiment: Established HIV-1 (GB8) infection of JM cells, post-infection addition: syncytia and p24 antigen; format: cell-based, HIV-1 (human T cell line JM); settings: for activity at 100 µg/mL: Human immunodeficiency virus 1, 75 h
Experimental: The stilbene disulfonic acids blocked HIV-1 replication when the compounds were added within 2 hours of virus adsorption, i.e., prior to virus penetration, and the cells were cultured in the presence of the inhibitors. These compounds were next examined for antiviral activity at later stages of the infection process. At a MOI of 0.01 infectious units/cell (GB8 virus), viral glycoproteins appear at the surface of JM cells by 24 hours post-infection (p.i.) and initiate fusion with neighboring CD4^+ cells; the syncytial numbers show a good correlation with the production of cell-free virus (Tyms et al., 1990).
In post-treatent experiments, cells were first infected with HIV-1 strain RF or GB8 for 2 hours at 37° C. at a MOI of 0.01 and allowed to grow for either 24 or 43 hours before replating into fresh growth medium containing 100 μg/ml of DIDS, H2 DIDS or SITS. Syncytia were then scored at 52 and 68 hours p.i. in triplicate, and p24 viral core antigen in culture fluids were assayed at 75 hours p.i. as described above.
Protocol: JM cells were infected with HIV at a multiplicity of infection of 0.00025 syncytial forming units per cell. Virus adsorption was at room temperature for one hour. The cells were then washed three times and distributed in wells of a tissue culture plate at a concentration of 2×10^5 cells/well. Either DIDS, SITS or H2 DIDS (all at 100 μg/ml) were added to wells at 0, 24, 43 and 51 hours post-infection. As virus controls some wells had no drug added. Syncytia were scored at 43, 52 and 68 hours post-infection. The cell-free supernatant fluids of the virus control wells were harvested after 33, 43, 51, 68 and 75 hours post-infection. All other wells were harvested 75 hours post-infection. The supernatant fluid was then assayed for p24 viral core antigen.

[2] = system: HIV-1 strain RF in C8166 cells; experiment: Acute HIV-1 (RF) infection of C8166 cells: syncytial and p24 antigen assays; format: cell-based, HIV-1 (human C8166 cells)
Description: When evaluated in the human T cell line JM acutely infected with the GB8 virus, DIDS, H2 DIDS and SITS (Table I) suppressed virus-induced multinucleated giant cell formation (syncytia). […] We also examined the antiviral properties of these compounds in a second host-cell/virus system, i.e., the highly CD4+ C8166 cells infected with the Haitian strain of HIV-1, RF.
The cell lines used were the semi-mature human lymphoblastoid leukemia T cell line JM, the human T-lymphoblastoid C8166 cell line, the human cutaneous T cell lymphoma line H9 and, the human T cell transformed line MT-4. Stocks of HIV-1 strains RF and GB8 (kindly provided by Dr. Graham Farrar, Center for Applied Microbiological Research, Porton Dawn, England) were prepared from chronically infected H9 cells and acutely infected JM cells, respectively. Virus stocks consisted of cell-free growth medium (RPMI 1640 plus 10% fetal calf serum) containing freshly shed virus. Virus titres were determined by a standard plaque reduction assay.
Virus stocks (strains RF or GB8) were diluted into growth medium containing various concentrations of DIDS, H2 DIDS or SITS. The required number of cells were then immediately added and the virus allowed to absorb for 2 hours at 37° C. to give a multiplicity of infection (MOI) of 0.001 infectious units/cell. The virus-infected cells were pelleted, washed three times in phosphate buffered saline (PBS), and resuspended in fresh growth medium containing the appropriate concentrations of stilbene disulfonic acids. Cells were then distributed into 24-well culture plates (Falcon) and assayed as described below for virus infection. Alternatively, cells were first infected with HIV-1 (strains RF or GB8) for 2 hours at 37° C. at the above MOI. After extensive washing, cells were replated into fresh growth medium containing various concentrations of stilbene disulfonic acids. In the above experiments, syncytia were scored between 2 and 4 days postinfection (p.i.) in triplicate using an Olympus CK2 inverted microscope. The culture fluids were recovered between 3 and 5 days p.i., clarified by low speed centrifugation (2,000 rpm) for 5 minutes and the level of HIV-1 p24 core antigen in the supernatants was determined by p24 antigen ELISA (Coulter). The concentrations of stilbene disulfonic acids giving 50% inhibition of HIV-1 growth (IC50) were determined from the dose-response curves by linear regression analysis.

HSV 2 = experiment: Plaque reduction assay, HSV 2; format: cell-based; settings: for activity at 0.1 µg/mL / activity at 1 µg/mL / activity at 10 µg/mL / activity at 100 µg/mL: read-out: Mean % VC (plaques)
Experimental: Protocol: Plaque reduction assay. Treatment after adsorption during incubation.

[3] = system: HIV-1 strain GB8 in JM cells; experiment: Established HIV-1 (GB8) infection of JM cells, post-infection addition: syncytia and p24 antigen; format: cell-based, HIV-1 (human T cell line JM); settings: 100 μg/ml
[4] = 100 μg/ml, time of addition 0 h p.i.
[5] = 100 μg/ml, time of addition 24h
[6] = 100 μg/ml, time of addition 24 hours
[7] = 100 μg/ml, time of addition 24 h p.i.
[8] = 100 μg/ml, time of addition 43h
[9] = 100 μg/ml, time of addition 43 hours
[10] = 100 μg/ml, time of addition 43 h p.i.
[11] = 100 μg/ml, time of addition 51h
[12] = 100 μg/ml, time of addition 51 hours
[13] = Human immunodeficiency virus 1, RF strain in C8166 cells, read-out: P24 Antigen % Virus Control (values in parenthesis)

With `O=S(=O)(O)c1cc(N=C=S)ccc1C=Cc1ccc(N=C=S)cc1S(=O)(=O)O` [DIDS, 4,4'-diisothiocyanatostilbene-2,2'-disulfonic acid] the “syncytia by 68 hours p.i.” value ([1]; 100 μg/ml, added 43 hours p.i.) was “completely absent”, the “fusion relative to virus control” value ([1]; 100 μg/ml, addition 24 hours p.i., scored at 52 and 68 hours p.i.) was “completely suppressed fusion” and the “Mean Syncytia 68 hrs” value ([1]; 100 μg/ml, time of addition 0h) was 0. For the same compound, the “P24 Antigen (75 hours post-infection)” value ([1]; 100 μg/ml, time of addition 0 hours) was “Neg”, the “P24 Antigen 75 h” value [1, 4] was “Neg” and the “Syncytia at 52h” value [1, 4] was 0. The “Syncytia at 68h” value [1, 4] was 0, the “Mean Syncytia 68 hrs” value [1, 5] was 0 and the “P24 Antigen (75 hours post-infection)” value [1, 6] was “Neg”. For the same compound, the “P24 Antigen 75 h” value [1, 7] was “Neg”, the “Syncytia at 52h” value [1, 7] was 0 and the “Syncytia at 68h” value [1, 7] was 0. For the same compound, the “Mean Syncytia 51 hrs” value [1, 8] was 19, the “Mean Syncytia 68 hrs” value [1, 8] was 0 and the “P24 Antigen (75 hours post-infection)” value [1, 9] was 2793 pg/mL. The “P24 Antigen 75 h” value [1, 10] was 2.8 ng/mL, the “Syncytia at 52h” value [1, 10] was 19 and the “Syncytia at 68h” value [1, 10] was 0. The “Mean Syncytia 68 hrs” value [1, 11] was 25, the “P24 Antigen (75 hours post-infection)” value [1, 12] was 49050 pg/mL and the activity at 100 µg/mL ([1]; read-out: P24 Antigen (75 hours post-infection), %, 100 μg/ml, time of addition 0 hours) was over 1%. The activity at 100 µg/mL ([1]; read-out: P24 Antigen (75 hours post-infection), %, 100 μg/ml, time of addition 24 hours) was under 1%, the activity at 100 µg/mL ([1]; read-out: P24 Antigen (75 hours post-infection), %, 100 μg/ml, time of addition 43 hours) was 2.4% and the activity at 100 µg/mL ([1]; read-out: P24 Antigen (75 hours post-infection), %, 100 μg/ml, time of addition 51 hours) was 42%. The “relative order of antiviral potency” value ([1]; established HIV-1 infections) was “DIDS>H2 DIDS>>SITS”, the HIV-1 infection ([2]; C8166 cells infected with RF) was “blocked HIV-1 infection” and the activity at 25 µg/mL ([2]; Human immunodeficiency virus 1, 25 µg/mL, RF strain in C8166 cells, read-out: P24 Antigen % Virus Control (values in parenthesis)) was 100%. The activity at 50 µg/mL [2, 13] was 83%, the activity at 100 µg/mL [2, 13] was 33% and the activity at 200 µg/mL [2, 13] was 4.8%. It also gave a Plaque counts (HSV 2; 0.1 μg/ml, first count) of 37, an activity at 0.1 µg/mL (HSV 2; 0.1 μg/ml) of 68% and a Plaque counts (HSV 2; 0.1 μg/ml, second count) of 40. The Plaque counts (HSV 2; 1 μg/ml, first count) was 31, the activity at 1 µg/mL (HSV 2; 1 μg/ml) was 61% and the Plaque counts (HSV 2; 1 μg/ml, second count) was 33. The Plaque counts (HSV 2; 1 μg/ml, third count) was 39, the Plaque counts (HSV 2; 10 μg/ml, first count) was 25 and the activity at 10 µg/mL (HSV 2; 10 μg/ml) was 44%. For the same compound, the Plaque counts (HSV 2; 10 μg/ml, second count) was 25, the Plaque counts (HSV 2; 10 μg/ml, third count) was 25 and the Plaque counts (HSV 2; 100 μg/ml, first count) was 0. It also gave an activity at 100 µg/mL (HSV 2; 100 μg/ml) of 0%, a Plaque counts (HSV 2; 100 μg/ml, second count) of 0 and a Plaque counts (HSV 2; 100 μg/ml, third count) of 0. For the same compound, the “Mean Syncytia 51 hrs” value ([3]; time of addition 0h) was 0 and the “Mean Syncytia 51 hrs” value ([3]; time of addition 24h) was 0.

`O=S(=O)(O)c1cc(N=C=S)ccc1CCc1ccc(N=C=S)cc1S(=O)(=O)O` [H2 DIDS, 4,4'-diisothiocyanatodihydrostilbene-2,2'-disulfonic acid] was tested, and the “Mean Syncytia 68 hrs” value ([1]; 100 μg/ml, time of addition 0h) was 0, the “P24 Antigen 75 h” value [1, 4] was “Neg” and the “Syncytia at 52h” value [1, 4] was 0. The “Syncytia at 68h” value [1, 4] was 0, the “Mean Syncytia 68 hrs” value [1, 5] was 0 and the “P24 Antigen (75 hours post-infection)” value [1, 6] was 2363 pg/mL. For the same compound, the “P24 Antigen 75 h” value [1, 7] was 2.4 ng/mL, the “Syncytia at 52h” value [1, 7] was 0 and the “Syncytia at 68h” value [1, 7] was 0. For the same compound, the “Mean Syncytia 51 hrs” value [1, 8] was 19, the “Mean Syncytia 68 hrs” value [1, 8] was 3 and the “P24 Antigen (75 hours post-infection)” value [1, 9] was 16412 pg/mL. The “P24 Antigen 75 h” value [1, 10] was 16.4 ng/mL, the “Syncytia at 52h” value [1, 10] was 19 and the “Syncytia at 68h” value [1, 10] was 3. For the same compound, the “Mean Syncytia 68 hrs” value [1, 11] was 15, the “P24 Antigen (75 hours post-infection)” value [1, 12] was 42020 pg/mL and the activity at 100 µg/mL ([1]; 100 μg/ml, time of addition 0 hours, read-out: P24 Antigen (75 hours post-infection), %) was under 1%. It also gave an activity at 100 µg/mL ([1]; 100 μg/ml, time of addition 0 h p.i., read-out: P24 Antigen 75 h, % (drug-free medium 100%)) of 0%, an activity at 100 µg/mL ([1]; 100 μg/ml, time of addition 24 hours, read-out: P24 Antigen (75 hours post-infection), %) of 2% and an activity at 100 µg/mL ([1]; 100 μg/ml, time of addition 24 h p.i., read-out: P24 Antigen 75 h, % (drug-free medium 100%)) of 2%. It also gave an activity at 100 µg/mL ([1]; 100 μg/ml, time of addition 43 hours, read-out: P24 Antigen (75 hours post-infection), %) of 14%, an activity at 100 µg/mL ([1]; 100 μg/ml, time of addition 43 h p.i., read-out: P24 Antigen 75 h, % (drug-free medium 100%)) of 14% and an activity at 100 µg/mL ([1]; 100 μg/ml, time of addition 51 hours, read-out: P24 Antigen (75 hours post-infection), %) of 36%. It also gave an activity at 50 µg/mL [2, 13] of over 100%, an activity at 100 µg/mL [2, 13] of 59% and an activity at 200 µg/mL [2, 13] of 2.5%. The Plaque counts (HSV 2; 0.1 μg/ml, first count) was 35, the Plaque counts (HSV 2; 0.1 μg/ml, second count) was 35 and the Plaque counts (HSV 2; 1 μg/ml, first count) was 23. The Plaque counts (HSV 2; 1 μg/ml, second count) was 31, the Plaque counts (HSV 2; 1 μg/ml, third count) was 24 and the Plaque counts (HSV 2; 10 μg/ml, first count) was 26. It also gave a Plaque counts (HSV 2; 10 μg/ml, second count) of 19, a Plaque counts (HSV 2; 10 μg/ml, third count) of 21 and a Plaque counts (HSV 2; 100 μg/ml, first count) of 0. For the same compound, the Plaque counts (HSV 2; 100 μg/ml, second count) was 0, the Plaque counts (HSV 2; 100 μg/ml, third count) was 0 and the activity at 0.1 µg/mL (HSV 2) was 63%. For the same compound, the activity at 1 µg/mL (HSV 2) was 46%, the activity at 10 µg/mL (HSV 2) was 43% and the activity at 100 µg/mL (HSV 2) was 0%. The “Mean Syncytia 51 hrs” value ([3]; time of addition 0h) was 0 and the “Mean Syncytia 51 hrs” value ([3]; time of addition 24h) was 0.
